Measurements published in PubChem BioAssay (NCI).
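Grown in 96-well plates, cells were treated for 48 hours with each compound at five concentrations. Insufficient inhibition: endpoint recorded as highest concentration tested. GI50: concentration for 50% inhibition of growth. The concentration for full growth arrest is given as TGI.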

How the values were obtained:
Assay in all cases: DTP human tumour cell line panel, 48 h
SNB-75 CNS = test system: SNB-75 CNS
MDA-MB-231 breast = test system: MDA-MB-231 breast
M14 melanoma = test system: M14 melanoma
OVCAR-4 ovarian = test system: OVCAR-4 ovarian
SK-OV-3 ovarian = test system: SK-OV-3 ovarian
MCF7 breast = test system: MCF7 breast
HOP-62 NSCLC = test system: HOP-62 NSCLC
NCI-H226 lung = test system: NCI-H226 lung
A498 renal = test system: A498 renal
KM12 colon = test system: KM12 colon
NCI-H460 lung = test system: NCI-H460 lung
PC-3 prostate = test system: PC-3 prostate
OVCAR-3 ovarian = test system: OVCAR-3 ovarian
SK-MEL-2 melanoma = test system: SK-MEL-2 melanoma
K-562 leukemia = test system: K-562 leukemia
HL-60(TB) leukemia = test system: HL-60(TB) leukemia
786-0 renal = test system: 786-0 renal
T-47D breast = test system: T-47D breast
UO-31 renal = test system: UO-31 renal
NCI/ADR-RES ovarian = test system: NCI/ADR-RES ovarian
HT29 colon = test system: HT29 colon
SN12C renal = test system: SN12C renal
RPMI-8226 leukemia = test system: RPMI-8226 leukemia
MOLT-4 leukemia = test system: MOLT-4 leukemia
SNB-19 CNS = test system: SNB-19 CNS
U251 CNS = test system: U251 CNS
SK-MEL-5 melanoma = test system: SK-MEL-5 melanoma
SW-620 colon = test system: SW-620 colon
IGROV1 ovarian = test system: IGROV1 ovarian
SR leukemia = test system: SR leukemia
OVCAR-5 ovarian = test system: OVCAR-5 ovarian
EKVX NSCLC = test system: EKVX NSCLC
UACC-62 melanoma = test system: UACC-62 melanoma
NCI-H522 lung = test system: NCI-H522 lung
SF-268 CNS = test system: SF-268 CNS
OVCAR-8 ovarian = test system: OVCAR-8 ovarian
HCT-116 colon = test system: HCT-116 colon
RXF 393 renal = test system: RXF 393 renal
HS 578T breast = test system: HS 578T breast
SK-MEL-28 melanoma = test system: SK-MEL-28 melanoma
NCI-H23 lung = test system: NCI-H23 lung
COLO 205 colon = test system: COLO 205 colon
MDA-MB-435 = test system: MDA-MB-435
CAKI-1 renal = test system: CAKI-1 renal
TK-10 renal = test system: TK-10 renal
DU-145 prostate = test system: DU-145 prostate
SF-295 CNS = test system: SF-295 CNS
SF-539 CNS = test system: SF-539 CNS
UACC-257 melanoma = test system: UACC-257 melanoma
A549 NSCLC = test system: A549 NSCLC
BT-549 breast = test system: BT-549 breast
HOP-92 NSCLC = test system: HOP-92 NSCLC
MALME-3M melanoma = test system: MALME-3M melanoma
ACHN renal = test system: ACHN renal
HCT-15 colon = test system: HCT-15 colon
LOX IMVI melanoma = test system: LOX IMVI melanoma
CCRF-CEM leukemia = test system: CCRF-CEM leukemia

## COc1ccc(CNc2nc(NCc3ccc(OC)cc3)nc(Nc3ccccc3)n2)cc1
SNB-75 CNS
  TGI: > 100000 nM
MDA-MB-231 breast
  TGI: > 100000 nM
M14 melanoma
  TGI: > 100000 nM
OVCAR-4 ovarian
  TGI: > 100000 nM
SK-OV-3 ovarian
  TGI: > 100000 nM
MCF7 breast
  TGI: > 100000 nM
HOP-62 NSCLC
  TGI: > 100000 nM
NCI-H226 lung
  TGI: > 100000 nM
A498 renal
  TGI: > 100000 nM
KM12 colon
  TGI: 35300 nM
NCI-H460 lung
  TGI: > 100000 nM
PC-3 prostate
  TGI: > 100000 nM
OVCAR-3 ovarian
  TGI: 6940 nM
SK-MEL-2 melanoma
  TGI: > 100000 nM
K-562 leukemia
  TGI: > 100000 nM
HL-60(TB) leukemia
  TGI: > 100000 nM
786-0 renal
  TGI: > 100000 nM
T-47D breast
  TGI: > 100000 nM
UO-31 renal
  TGI: > 100000 nM
NCI/ADR-RES ovarian
  TGI: > 100000 nM
HT29 colon
  TGI: 4100 nM
SN12C renal
  TGI: > 100000 nM
RPMI-8226 leukemia
  TGI: 40300 nM
MOLT-4 leukemia
  TGI: > 100000 nM
SNB-19 CNS
  TGI: > 100000 nM
U251 CNS
  TGI: > 100000 nM
SK-MEL-5 melanoma
  TGI: > 100000 nM
SW-620 colon
  TGI: > 100000 nM
IGROV1 ovarian
  TGI: > 100000 nM
SR leukemia
  TGI: 3810 nM
OVCAR-5 ovarian
  TGI: > 100000 nM
EKVX NSCLC
  TGI: > 100000 nM
UACC-62 melanoma
  TGI: > 100000 nM
NCI-H522 lung
  TGI: > 100000 nM
SF-268 CNS
  TGI: > 100000 nM
OVCAR-8 ovarian
  TGI: > 100000 nM
HCT-116 colon
  TGI: > 100000 nM
RXF 393 renal
  TGI: > 100000 nM
HS 578T breast
  TGI: > 100000 nM
SK-MEL-28 melanoma
  TGI: > 100000 nM
NCI-H23 lung
  TGI: 78500 nM
COLO 205 colon
  TGI: > 100000 nM
MDA-MB-435
  TGI: 5700 nM
CAKI-1 renal
  TGI: 10400 nM
TK-10 renal
  TGI: > 100000 nM
DU-145 prostate
  TGI: > 100000 nM
SF-295 CNS
  TGI: 8830 nM
SF-539 CNS
  TGI: > 100000 nM
UACC-257 melanoma
  TGI: > 100000 nM
A549 NSCLC
  TGI: > 100000 nM
BT-549 breast
  TGI: > 100000 nM
HOP-92 NSCLC
  TGI: > 100000 nM
MALME-3M melanoma
  TGI: > 100000 nM
ACHN renal
  TGI: > 100000 nM
HCT-15 colon
  TGI: 13500 nM

## COC(=O)c1c2c(c(C)[n+]([O-])c1C)C(=O)C=C(NCc1cccc(OC)c1)C2=O
SNB-75 CNS
  GI50: 1640 nM
  TGI: 3010 nM
MDA-MB-231 breast
  GI50: 358 nM
  TGI: 4830 nM
M14 melanoma
  GI50: 405 nM
  TGI: 1540 nM
OVCAR-4 ovarian
  GI50: 246 nM
  TGI: 993 nM
MCF7 breast
  GI50: 258 nM
  TGI: 826 nM
HOP-62 NSCLC
  GI50: 1580 nM
  TGI: 3390 nM
NCI-H226 lung
  GI50: 1720 nM
  TGI: 4480 nM
A498 renal
  GI50: 1310 nM
  TGI: 2590 nM
PC-3 prostate
  GI50: 333 nM
  TGI: 2730 nM
OVCAR-3 ovarian
  GI50: 257 nM
  TGI: 743 nM
SK-MEL-2 melanoma
  GI50: 1150 nM
  TGI: 2780 nM
K-562 leukemia
  GI50: 370 nM
  TGI: 6510 nM
HL-60(TB) leukemia
  GI50: 317 nM
  TGI: 1150 nM
786-0 renal
  GI50: 1880 nM
  TGI: 4850 nM
T-47D breast
  GI50: 286 nM
  TGI: 1620 nM
UO-31 renal
  GI50: 1130 nM
  TGI: 2440 nM
NCI/ADR-RES ovarian
  GI50: 441 nM
  TGI: 3150 nM
HT29 colon
  GI50: 370 nM
  TGI: 1540 nM
SN12C renal
  GI50: 323 nM
  TGI: 1240 nM
RPMI-8226 leukemia
  GI50: 848 nM
  TGI: 4290 nM
MOLT-4 leukemia
  GI50: 1090 nM
  TGI: 3540 nM
U251 CNS
  GI50: 646 nM
  TGI: 2080 nM
SK-MEL-5 melanoma
  GI50: 171 nM
  TGI: 334 nM
SW-620 colon
  GI50: 318 nM
  TGI: 1260 nM
LOX IMVI melanoma
  GI50: 249 nM
  TGI: 1440 nM
IGROV1 ovarian
  GI50: 579 nM
  TGI: 2180 nM
SR leukemia
  GI50: 561 nM
  TGI: 8110 nM
OVCAR-5 ovarian
  GI50: 1310 nM
  TGI: 2770 nM
EKVX NSCLC
  GI50: 1010 nM
  TGI: 2260 nM
UACC-62 melanoma
  GI50: 250 nM
  TGI: 1070 nM
NCI-H522 lung
  GI50: 429 nM
  TGI: 2240 nM
SF-268 CNS
  GI50: 1260 nM
  TGI: 4210 nM
CCRF-CEM leukemia
  GI50: 471 nM
OVCAR-8 ovarian
  GI50: 290 nM
  TGI: 1400 nM
RXF 393 renal
  GI50: 1270 nM
  TGI: 2630 nM
HS 578T breast
  GI50: 1640 nM
  TGI: 6250 nM
NCI-H23 lung
  GI50: 515 nM
  TGI: 2570 nM
COLO 205 colon
  GI50: 293 nM
  TGI: 928 nM
MDA-MB-435
  GI50: 178 nM
  TGI: 330 nM
CAKI-1 renal
  GI50: 696 nM
  TGI: 2220 nM
DU-145 prostate
  GI50: 1060 nM
  TGI: 2290 nM
SF-295 CNS
  GI50: 772 nM
  TGI: 2100 nM
SF-539 CNS
  GI50: 879 nM
  TGI: 2110 nM
UACC-257 melanoma
  GI50: 254 nM
  TGI: 786 nM
BT-549 breast
  GI50: 1290 nM
  TGI: 2650 nM
HOP-92 NSCLC
  GI50: 1990 nM
  TGI: 4700 nM
MALME-3M melanoma
  GI50: 150 nM
  TGI: 341 nM
ACHN renal
  GI50: 1010 nM
  TGI: 2190 nM
HCT-15 colon
  GI50: 331 nM
  TGI: 1610 nM
